Data set [1] concerns the target T1, SHP-2 enzyme (Met1-Leu525), SHP2wt (Homo sapiens, UniProt Q06124).
T1 construct: synthetized by Origene, Met1-Leu525, cat #TP750155; purchased Origene TP750155
T1 sequence (Q06124 1-525): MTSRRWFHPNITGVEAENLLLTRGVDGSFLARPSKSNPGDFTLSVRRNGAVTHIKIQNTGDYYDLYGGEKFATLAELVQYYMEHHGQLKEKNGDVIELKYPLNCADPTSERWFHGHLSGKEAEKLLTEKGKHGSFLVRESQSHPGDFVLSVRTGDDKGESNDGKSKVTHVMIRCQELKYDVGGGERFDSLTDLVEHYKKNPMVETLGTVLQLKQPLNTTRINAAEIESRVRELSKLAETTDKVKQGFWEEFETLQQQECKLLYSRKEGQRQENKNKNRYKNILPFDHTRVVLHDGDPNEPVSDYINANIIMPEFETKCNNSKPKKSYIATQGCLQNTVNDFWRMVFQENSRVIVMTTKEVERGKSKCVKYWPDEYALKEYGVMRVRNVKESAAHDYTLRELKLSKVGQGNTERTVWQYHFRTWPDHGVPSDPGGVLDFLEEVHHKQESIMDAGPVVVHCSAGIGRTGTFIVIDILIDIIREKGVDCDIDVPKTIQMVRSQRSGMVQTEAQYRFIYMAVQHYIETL
The data set can be described thus: SHP2 inhibition enzymatic assay. In kind it is biochemical. As to conditions: 0.5 nM SHP-2 activated by 500 nM IRS1 peptide, 75 μM DiFMUP substrate. In outline:
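Human SHP2 (Met1-Leu525, 0.5 nM) activated by 500 nM bis-phosphorylated IRS1 peptide, pre-incubated 30 min with compound, then 75 μM DiFMUP for 30 min at rt in HEPES pH 7.2, NaCl/KCl, EDTA, Tween-20, 5 mM DTT. Reaction quenched with bpV, fluorescence read; IC50 by four-parameter logistic fit.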

The subject of data set [2] is phospho-ERK1/2 (Thr202/Tyr204). The data set is described as follows: Phospho-ERK cellular assay. In kind it is cell-based. As to conditions: Homo sapiens; KYSE-520 cells, 2 h at 37° C, TR-FRET; read-out: pERK IC50. In outline:
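KYSE-520 cells treated overnight-after-plating with serially diluted compounds for 2 h at 37° C, then lysed. Phospho-ERK1/2 measured by TR-FRET after overnight antibody incubation at rt; inhibition normalized between DMSO (0%) and no-cell (100%) wells, IC50 from four-parameter logistic fit.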

A short description of data set [3]: Determination of brain penetration in SD rats. In kind it is in vivo. As to conditions: Sprague-Dawley (SD), rat; male SD rats, IV 0.2 mg/kg, unbound brain to plasma ratio at 8 h; read-out: Kpuu, brain. As to the method:
Total brain levels, expressed as brain/plasma ratio (Kp,brain) were measured by Cbrain@8h/Cplasma@8h in SD rats after IV administration (see Pharmaceutical Research, Vol. 25, No. 8, August 2008 DOI: 10.1007/s11095-007-9502-2; Pharmaceutical Research (2022) 39:1321-1341 https://doi.org/10.1007/s11095-022-03246-6). Unbound fraction of each molecule in biological matrix was determined by in vitro plasma and brain binding assay. Kpuu, brain was calculated by the following equation: […]
In vitro plasma and brain binding assay was carried out on a RED (Rapid Equilibrium Dialysis) device. Unbound fraction (fu) of each molecule in the brain homogenate and plasma were calculated by the ratio of the buffer side response to the brain homogenate/plasma side response. An IV study design was used as the in vivo screening model to identify brain penetration of each molecule. Male naïve SD rats (n=3) were intravenously dosed with each molecule at 0.2 mg/kg in DMSO/Propylene Glycol/Water, 20:60:20 (v/v/v). At 0.083, 0.25, 0.5, 1, 2, 4, and 8 h post-dose plasma samples were collected via tail vein and brain tissue was harvested at the 8 h time point and homogenized in 3× volume of water. All samples were stored at ˜−80° C. prior to LC/MS/MS analysis. At the 8 h time point, the unbound brain to plasma ratios were generated to identify molecules with Kpuu, brain values>0.3 which is indicative of good passive brain penetration.

For data set [4], the target named is T2, recombinant SHP2 protein (AviTag-G4SG4S-SHP2(1-525)) (Homo sapiens, UniProt Q06124).
T2 construct: recombinant SHP2 protein (AviTag-G4SG4S-SHP2(1-525)); purchased VIVA Biotech Ltd (custom production)
T2 sequence (Q06124 1-525): T1 sequence (Q06124 1-525)
The data set can be described thus: Binding kinetic assay by surface plasmon resonance (SPR). As to conditions: for Residence time 1/koff SPR: 1/koff from SPR; for koff: Biacore T200, single cycle kinetic, 25° C, 1:1 Langmuir model. On the procedure:
A N-term biotinylated recombinant SHP2 protein (AviTag-G4SG4S-SHP2(1-525)) was custom produced by VIVA Biotech Ltd. Binding kinetic rate constants were measured by SPR, using a Biacore T200 instrument. The recombinant SHP2 protein was diluted at […] in HBS-P+ buffer, then captured on a series S streptavidin sensor chip up to 5000 RU. Binding of compounds was assessed by a single cycle kinetic procedure (SCK): compounds were diluted in HBS-EP+ supplemented with 20% DMSO (from 300 to 3.7 nM, 3 fold dilution), injected for 120 s over the ligand, then dissociation rate measured for 3600 s, at […] and 25° C. Sensorgrams were analysed by Biacore T200 evaluation software: binding rate constants (kon, koff) and affinity (KD) were calculated by curve filling according to a 1:1 Langmuir model. Each molecule was tested in triplicate on separate flow channels.

Each structure is given as a SMILES string.

With `Cc1c(N2CCC3(CC2)Cn2nccc2[C@H]3N)nc(C)n(-c2cccc(Cl)c2Cl)c1=O` (single isomer, unassigned) [Example 3], the IC50 in data set [1] is ≤ 50 nM. Also, the IC50 in data set [2] is < 100 nM. Besides, in data set [3], the Kp uu at 8 h is > 0.3. In data set [4], the “Residence time 1/koff SPR” value is on record as 8065 s and the koff came to 0.000124 s⁻¹.
The like results for `N[C@@H]1c2ccnn2CC12CCN(c1cnc(Oc3cccc(Cl)c3Cl)cn1)CC2` [Example 2, (S)-1-(5-(2,3-dichlorophenoxy)pyrazin-2-yl)-4′H,6′H-spiro[piperidine-4,5′-pyrrolo[1,2-b]pyrazol]-4′-amine] were, in that order, ≤ 50 nM, 100 to 500 nM, > 0.3, 1944 s and 0.000514 s⁻¹.
The like results for `N[C@@H]1c2ccnn2CC12CCN(c1cnc(Sc3cccc(-n4cccn4)c3Cl)cn1)CC2` [Example 10, (S)-1-(5-((2-chloro-3-(1H-pyrazol-1-yl)phenyl)thio)pyrazin-2-yl)-4′H,6′H-spiro[piperidine-4,5′-pyrrolo[1,2-b]pyrazol]-4′-amine] were, in that order, ≤ 50 nM, < 100 nM, > 0.3, 90909 s and 1.1e-05 s⁻¹.
The like results for `N[C@@H]1c2ccnn2CC12CCN(c1cnc(Sc3ccccc3F)cn1)CC2` [Example 21, (S)-1-(5-((2-fluorophenyl)thio)pyrazin-2-yl)-4′H,6′H-spiro[piperidine-4,5′-pyrrolo[1,2-b]pyrazol]-4′-amine] were, in that order, ≤ 50 nM, < 100 nM, > 0.3, 11001 s and 9.09e-05 s⁻¹.
As to `Cc1cccc(Sc2cnc(N3CCC4(CC3)Cn3nccc3[C@H]4N)cn2)c1F` [Example 36, (S)-1-(5-((2-fluoro-3-methylphenyl)thio)pyrazin-2-yl)-4′H,6′H-spiro[piperidine-4,5′-pyrrolo[1,2-b]pyrazol]-4′-amine], the IC50 in data set [1] was ≤ 50 nM. Further, the IC50 in data set [2] is < 100 nM. In addition, in data set [3], the Kp uu at 8 h was < 0.3. Further, in data set [4], the “Residence time 1/koff SPR” value is 53571 s and the off-rate constant (koff) was determined as 1.87e-05 s⁻¹.
The like results for `N[C@@H]1c2ccnn2CC12CCN(c1cnc(Sc3ccnc4ccccc34)cn1)CC2` [Example 39, (S)-1-(5-(quinolin-4-ylthio)pyrazin-2-yl)-4′H,6′H-spiro[piperidine-4,5′-pyrrolo[1,2-b]pyrazol]-4′-amine] were, in that order, ≤ 50 nM, < 100 nM, > 0.3, 5474 s and 0.000183 s⁻¹.
Take `N[C@@H]1c2ccnn2CC12CCN(c1cnc(Sc3cccc(-n4ccnc4)c3Cl)cn1)CC2` [Example 44, (S)-1-(5-((2-chloro-3-(1H-imidazol-1-yl)phenyl)thio)pyrazin-2-yl)-4′H,6′H-spiro[piperidine-4,5′-pyrrolo[1,2-b]pyrazol]-4′-amine]: the IC50 in data set [1] is ≤ 50 nM. The IC50 in data set [2] is < 100 nM. In data set [3], the Kp uu at 8 h is > 0.3. Also, in data set [4], the “Residence time 1/koff SPR” value turned out to be 3417 s and the off-rate constant (koff) was 0.000293 s⁻¹.

(Values after patent US20260109699A1, “AZOLE DERIVATIVES AS SHP2 INHIBITORS” (IRBM S.P.A., priority 2022, published 2026).)
